Measurements from CN103483288A, “一类3,4-二氯异噻唑双酰肼类化合物及其制备方法和用途” (priority 2013, dated 2014).
Like-named read-outs stand apart in the source and are kept apart here.

Assays:
Type in all cases: in vivo
[1] = test system: tobacco mosaic virus (烟草花叶病毒(TMV)); assay: 直接抗TMV活性, 半叶法; details: for inhibition at 100 µg/mL: Tobacco mosaic virus
[2] = test system: tobacco mosaic virus (烟草花叶病毒(TMV)); assay: 诱导烟草抗TMV活性 (活体诱导); details: for inhibition at 100 µg/mL: Tobacco mosaic virus, read-out: antiviral activity (inhibition rate): induction activity
diamondback moth (小菜蛾) = assay: 小菜蛾杀虫活性, 叶片药膜法; details: for mortality at 200 µg/mL: Plutella xylostella, read-out: kill rate
[3] = TMV, 100 mg/L, read-out: antiviral activity (inhibition rate): curative activity
[4] = TMV, 100 mg/L, read-out: antiviral activity (inhibition rate): inactivation activity
[5] = TMV, 100 mg/L, read-out: antiviral activity (inhibition rate): protective activity
[6] = induced resistance of tobacco to TMV, 100 mg/L
[7] = induced resistance of tobacco to TMV
[8] = 200 mg/L, 2nd instar larvae, 96 h or 120 h

SMILES | inhibition at 100 µg/mL [1, 3] [%] | inhibition at 100 µg/mL [1, 4] [%] | inhibition at 100 µg/mL [1, 5] [%] | inhibition at 100 µg/mL [2, 6] [%] | induction activity (in words) [2, 7] | kill rate (diamondback moth (小菜蛾); [8]) [%] | direct antiviral activity (in words) ([1]; TMV) | other results
Cc1ccc(NC(=O)c2snnc2C)cc1Cl [TDL, 噻酰菌胺] | 23.5 ± 4.41 | 20.5 ± 3.88 | 20.1 ± 6.41 | 47.5 ± 3.75 | 具有很好的诱导烟草产生对TMV的抗性 | – | – | antiviral activity (inhibition rate): induction activity [2, 6]: 47%
O=[N+]([O-])NC1=NCCN1Cc1ccc(Cl)nc1 [吡虫啉] | – | – | – | – | – | 0 | – | mortality at 200 µg/mL (diamondback moth (小菜蛾)): 0%
CNCC(=O)NC(CO)C(=O)NC1C(C(N)=O)OC(n2ccc(N)nc2=O)C(O)C1O (stereo not shown) [宁南霉素] | – | – | – | – | 几乎没有诱导活性 | – | 具有很好的直接抗病毒活性 | inhibition at 100 µg/mL ([1]; read-out: antiviral activity (inhibition rate): curative activity): 41.7 ± 2.25%; inhibition at 100 µg/mL ([1]; read-out: antiviral activity (inhibition rate): inactivation activity): 43.1 ± 4.07%; inhibition at 100 µg/mL ([1]; read-out: antiviral activity (inhibition rate): protective activity): 42.9 ± 1.59%; inhibition at 100 µg/mL [2]: 25 ± 3.75%
CNC(=O)c1cc(Cl)cc(C)c1NC(=O)c1cc(Br)nn1-c1ncccc1Cl [氯虫苯甲酰胺] | – | – | – | – | – | 100 | – | mortality at 200 µg/mL (diamondback moth (小菜蛾); [8]): 100%
NC(=O)c1ncn([C@@H]2O[C@H](CO)[C@@H](O)[C@H]2O)n1 [病毒唑] | 44.1 ± 2.94 | 25.6 ± 3.87 | 46 ± 4.2 | 27.1 ± 4.39 | 几乎没有诱导活性 | – | 具有很好的直接抗病毒活性 | –
